Reference: patent US20030236175A1, “Process for well fluids base oil via metathesis of alpha-olefins” (priority 2002, published 2003)

Test system: leptocheirus plumulosus
Assay type: in vivo
From the text: This protocol uses leptocheirus plumulosus in a 10-day sediment toxicity test using a reference standard C16-18 IO (internal olefin) (sometimes also designated as C16-C18 IO, C1618 IO, or C16-18 IO) having approximately 65% C16 and 35% C18 olefin.

With `CCCCCCCCC=CCCCCCCCC` [Example 11, 9-octadecene] the “Toxicity, mg/kg” value (LC50, 10-day sediment toxicity test, leptocheirus plumulosus) was 11,279 mg/kg and the Toxicity ratio (ratio of LC50 values, sample vs reference standard C16-18 IO (Equation 1), passing <= 1.0) was 0.63.
